± gives the standard deviation of the averaged measurements.
Columns and labels:
Assay in all cases: relative viability vs DMSO control (72 h) (fraction); higher = more viable cells
[1] = test system: KHOS-240S
Procedure, shortened: (§1)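 Plates held 72 h at 37 °C and 5% CO2 contained sarcoma cell lines seeded in 384-well format to reach 80–90% confluence, plus 2.5 µl of serially diluted compound added after 24 h. Source plate concentrations ran from 10 mM to 0.0002 mM, with 0.1% DMSO as vehicle and a 5 µM positive control. Percent growth from ATPLite readings, averaged over up to triplicate wells, gave relative viability. Values were rescaled with 1 as full and 0 as none.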

[2] = test system: RD
Procedure, shortened: as §1

[3] = test system: SW1353
Procedure, shortened: as §1

[4] = test system: SYO-1
Procedure, shortened: as §1

[5] = test system: MES-SA
Procedure, shortened: as §1

CCS(=O)(=O)N1CC(CC#N)(n2cc(-c3ncnc4[nH]ccc34)cn2)C1 [Baricitinib]
relative viability
Conditions | [1] | [2] | [3] | [4] | [5]
0.00017 µM | 1.035 ± 0.0057 | 1.02 ± 0.032 | 0.952 ± 0.013 | 0.994 ± 0.049 | 0.928 ± 0.015
0.00051 µM | 1.022 ± 0.0081 | 1.02 ± 0.023 | 0.931 ± 0.015 | 1.01 ± 0.012 | 0.936 ± 0.037
0.00152 µM | 1.037 ± 0.0071 | 1.03 ± 0.027 | 0.977 ± 0.037 | 1.01 ± 0.036 | 0.945 ± 0.047
0.00457 µM | 1.04 ± 0.019 | 1.03 ± 0.034 | 0.975 ± 0.03 | 0.994 ± 0.024 | 0.942 ± 0.013
0.01372 µM | 1.03 ± 0.02 | 1.027 ± 0.01 | 0.947 ± 0.036 | 0.999 ± 0.048 | 0.95 ± 0.018
0.04115 µM | 1.019 ± 0.004 | 0.991 ± 0.039 | 0.961 ± 0.043 | 0.993 ± 0.028 | 0.929 ± 0.037
0.1235 µM | 1.05 ± 0.031 | 0.999 ± 0.024 | 0.953 ± 0.028 | 0.988 ± 0.04 | 0.935 ± 0.028
0.3704 µM | 1.03 ± 0.021 | 1.03 ± 0.067 | 0.969 ± 0.022 | 0.985 ± 0.035 | 0.929 ± 0.026
1.111 µM | 1.04 ± 0.042 | 1.051 ± 0.0038 | 0.985 ± 0.019 | 0.988 ± 0.046 | 0.893 ± 0.033
3.333 µM | 0.958 ± 0.019 | 1.12 ± 0.024 | 0.915 ± 0.034 | 0.952 ± 0.056 | 0.83 ± 0.013
10 µM | 0.7777 ± 0.0044 | 1.03 ± 0.014 | 0.786 ± 0.03 | 0.897 ± 0.044 | 0.753 ± 0.033

COc1cc(N2CCC(N3CCN(C)CC3)CC2)ccc1Nc1ncc(Cl)c(Nc2ccccc2P(C)(C)=O)n1 [Brigatinib]
relative viability
Conditions | [1] | [2] | [3] | [4] | [5]
0.00017 µM | 1.04 ± 0.058 | 1.06 ± 0.098 | 0.909 ± 0.056 | 0.95 ± 0.021 | 0.864 ± 0.025
0.00051 µM | 1.04 ± 0.045 | 1.06 ± 0.086 | 0.922 ± 0.018 | 0.952 ± 0.018 | 0.843 ± 0.012
0.00152 µM | 1.02 ± 0.071 | 1.07 ± 0.069 | 0.907 ± 0.034 | 0.922 ± 0.043 | 0.866 ± 0.013
0.00457 µM | 1.01 ± 0.07 | 1.05 ± 0.047 | 0.903 ± 0.063 | 0.889 ± 0.079 | 0.893 ± 0.038
0.01372 µM | 0.989 ± 0.053 | 1.05 ± 0.051 | 0.896 ± 0.052 | 0.846 ± 0.086 | 0.859 ± 0.024
0.04115 µM | 0.978 ± 0.079 | 0.978 ± 0.056 | 0.851 ± 0.037 | 0.768 ± 0.058 | 0.894 ± 0.034
0.1235 µM | 0.92 ± 0.066 | 0.769 ± 0.028 | 0.824 ± 0.044 | 0.706 ± 0.058 | 0.956 ± 0.068
0.3704 µM | 0.754 ± 0.035 | 0.459 ± 0.017 | 0.647 ± 0.035 | 0.501 ± 0.028 | 1.01 ± 0.064
1.111 µM | 0.445 ± 0.02 | 0.342 ± 0.012 | 0.449 ± 0.008 | 0.239 ± 0.012 | 0.948 ± 0.053
3.333 µM | 0.0468 ± 0.004 | 0.168 ± 0.016 | 0.147 ± 0.013 | 0.0457 ± 0.0037 | 0.385 ± 0.026
10 µM | 0.0051 ± 0.0024 | 0.0473 ± 0.014 | 0.0131 ± 0.0024 | -0.0131 ± 0.0053 | 0.135 ± 0.0083

CC(=O)c1c(C)c2cnc(Nc3ccc(N4CCNCC4)cn3)nc2n(C2CCCC2)c1=O [Palbociclib]
relative viability
Conditions | [1] | [2] | [3] | [4] | [5]
0.00017 µM | 1.07 ± 0.051 | 1.03 ± 0.036 | 1.05 ± 0.027 | 1.01 ± 0.04 | 0.965 ± 0.017
0.00051 µM | 1.07 ± 0.026 | 1.08 ± 0.069 | 1.06 ± 0.033 | 1 ± 0.036 | 0.977 ± 0.039
0.00152 µM | 1.08 ± 0.042 | 1.11 ± 0.048 | 1.05 ± 0.067 | 1.01 ± 0.027 | 0.975 ± 0.05
0.00457 µM | 1.07 ± 0.047 | 1.09 ± 0.055 | 1.04 ± 0.053 | 0.9555 ± 0.007 | 0.936 ± 0.011
0.01372 µM | 1.07 ± 0.053 | 1.08 ± 0.047 | 1.01 ± 0.036 | 0.903 ± 0.035 | 0.9398 ± 0.0046
0.04115 µM | 1.01 ± 0.061 | 1.09 ± 0.018 | 0.955 ± 0.041 | 0.8 ± 0.034 | 0.852 ± 0.013
0.1235 µM | 0.945 ± 0.08 | 1.05 ± 0.063 | 0.9442 ± 0.0064 | 0.702 ± 0.015 | 0.782 ± 0.028
0.3704 µM | 0.843 ± 0.019 | 1.01 ± 0.041 | 0.9 ± 0.041 | 0.649 ± 0.024 | 0.678 ± 0.018
1.111 µM | 0.734 ± 0.028 | 0.968 ± 0.038 | 0.859 ± 0.039 | 0.621 ± 0.05 | 0.641 ± 0.014
3.333 µM | 0.681 ± 0.018 | 0.905 ± 0.062 | 0.87 ± 0.029 | 0.523 ± 0.09 | 0.521 ± 0.019
10 µM | 0.607 ± 0.019 | 0.276 ± 0.034 | 0.425 ± 0.07 | -0.000667 ± 0.0017 | 0.366 ± 0.0056

CO[C@H]1C[C@@H]2CC[C@@H](C)[C@@](O)(O2)C(=O)C(=O)N2CCCC[C@H]2C(=O)O[C@H]([C@H](C)C[C@@H]2CC[C@@H](OC(=O)C(C)(CO)CO)[C@H](OC)C2)CC(=O)[C@H](C)/C=C(\C)[C@@H](O)[C@@H](OC)C(=O)[C@H](C)C[C@H](C)/C=C/C=C/C=C/1C [Temsirolimus]
relative viability
Conditions | [1] | [2] | [3] | [4] | [5]
0.00017 µM | 1.01 ± 0.043 | 1.09 ± 0.063 | 0.892 ± 0.051 | 0.884 ± 0.038 | 0.814 ± 0.042
0.00051 µM | 0.954 ± 0.06 | 1.01 ± 0.064 | 0.859 ± 0.059 | 0.877 ± 0.065 | 0.651 ± 0.03
0.00152 µM | 0.886 ± 0.05 | 0.91 ± 0.069 | 0.827 ± 0.1 | 0.878 ± 0.035 | 0.497 ± 0.042
0.00457 µM | 0.833 ± 0.073 | 0.84 ± 0.059 | 0.781 ± 0.1 | 0.83 ± 0.063 | 0.423 ± 0.008
0.01372 µM | 0.807 ± 0.066 | 0.792 ± 0.052 | 0.745 ± 0.12 | 0.798 ± 0.065 | 0.382 ± 0.022
0.04115 µM | 0.802 ± 0.065 | 0.755 ± 0.057 | 0.72 ± 0.06 | 0.749 ± 0.062 | 0.3571 ± 0.003
0.1235 µM | 0.763 ± 0.068 | 0.735 ± 0.032 | 0.68 ± 0.046 | 0.687 ± 0.056 | 0.353 ± 0.021
0.3704 µM | 0.748 ± 0.072 | 0.681 ± 0.043 | 0.664 ± 0.027 | 0.633 ± 0.051 | 0.3494 ± 0.0012
1.111 µM | 0.662 ± 0.11 | 0.667 ± 0.021 | 0.63 ± 0.046 | 0.589 ± 0.024 | 0.343 ± 0.018
3.333 µM | 0.581 ± 0.14 | 0.578 ± 0.07 | 0.602 ± 0.05 | 0.544 ± 0.045 | 0.314 ± 0.015
10 µM | 0.222 ± 0.058 | 0.441 ± 0.037 | 0.149 ± 0.013 | 0.323 ± 0.017 | 0.223 ± 0.008

CS(=O)(=O)CCNCc1ccc(-c2ccc3ncnc(Nc4ccc(OCc5cccc(F)c5)c(Cl)c4)c3c2)o1 [Lapatinib]
relative viability
Conditions | [1] | [2] | [3] | [4] | [5]
0.00017 µM | 1.04 ± 0.055 | 1.09 ± 0.095 | 0.964 ± 0.021 | 0.955 ± 0.054 | 0.933 ± 0.023
0.00051 µM | 1.05 ± 0.045 | 1.1 ± 0.069 | 0.962 ± 0.041 | 0.93 ± 0.035 | 0.918 ± 0.043
0.00152 µM | 1.07 ± 0.043 | 1.09 ± 0.083 | 0.948 ± 0.039 | 0.958 ± 0.026 | 0.904 ± 0.039
0.00457 µM | 1.06 ± 0.042 | 1.11 ± 0.062 | 0.954 ± 0.035 | 0.959 ± 0.02 | 0.912 ± 0.034
0.01372 µM | 1.09 ± 0.06 | 1.08 ± 0.071 | 0.932 ± 0.046 | 0.936 ± 0.051 | 0.923 ± 0.011
0.04115 µM | 1.09 ± 0.046 | 1.12 ± 0.053 | 0.905 ± 0.037 | 0.949 ± 0.064 | 0.931 ± 0.021
0.1235 µM | 1.07 ± 0.021 | 1.09 ± 0.051 | 0.906 ± 0.04 | 0.934 ± 0.051 | 0.945 ± 0.039
0.3704 µM | 1.09 ± 0.029 | 1.1 ± 0.038 | 0.85 ± 0.022 | 0.944 ± 0.039 | 0.9335 ± 0.0061
1.111 µM | 1.08 ± 0.013 | 1.1 ± 0.041 | 0.863 ± 0.024 | 0.912 ± 0.03 | 0.915 ± 0.045
3.333 µM | 0.65 ± 0.11 | 0.98 ± 0.05 | 0.847 ± 0.023 | 0.637 ± 0.024 | 0.683 ± 0.023
10 µM | 0.345 ± 0.11 | 0.0224 ± 0.013 | 0.807 ± 0.025 | 0.165 ± 0.12 | 0.0484 ± 0.039

— the supplement of paper PMC10883282
